Laboratory results: publication PMC2763079 (Molecular Imaging and Biology, 2009)

Key:
[1] = target: T1, TSPO (Rattus norvegicus, UniProt P16257); test: correlation of specific binding in control rats with [^3H]-PK11195 binding; format: in vivo
[2] = target: T1, TSPO; test: ex vivo biodistribution after PET scan; format: in vivo; conditions: 60 min after tracer injection

T1 sequence (P16257 whole entry): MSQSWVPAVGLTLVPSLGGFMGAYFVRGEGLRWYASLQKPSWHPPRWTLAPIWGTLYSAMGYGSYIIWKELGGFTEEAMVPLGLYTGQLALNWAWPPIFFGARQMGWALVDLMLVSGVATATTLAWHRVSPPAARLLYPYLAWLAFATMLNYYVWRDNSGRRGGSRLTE

## CC[C@@H](C)N(C)C(=O)c1cc2ccccc2c(-c2ccccc2Cl)n1 [[^11C]-(R)-PK11195, (R)-N-methyl-N-(1-methylpropyl)-1-(2-chlorophenyl)isoquinoline-3-carboxamide]
[1]; Pearson correlation, [^3H]-PK11195 binding from Kurumaji et al. [25]
  R, correlation of specific binding in control rats with [^3H]-PK11195 binding: 0.96
[1]; control rats
  slope of the linear regression of specific binding vs [^3H]-PK11195 binding: 0.010
[2]; HSE rats
  Ex vivo biodistribution SUV, bulbus olfactorius: 1.59 SUV
  Ex vivo biodistribution SUV, cerebellum: 0.88 SUV
  Ex vivo biodistribution SUV, medulla: 1.29 SUV
  Ex vivo biodistribution SUV, pons: 1.54 SUV
[2]; control rats
  Ex vivo biodistribution SUV, bulbus olfactorius: 1.20 SUV
  Ex vivo biodistribution SUV, cerebellum: 0.51 SUV
  Ex vivo biodistribution SUV, medulla: 0.61 SUV
  Ex vivo biodistribution SUV, pons: 0.59 SUV
